Data from patent publication US20260276656A1, “GUT MICROBIOTA-RELATED METHODS FOR TREATING DEMENTIA AND AGE-DEPENDENT COGNITIVE DECLINE” (Albert-Ludwigs-Universitat Freiburg, priority 2019, published 2026).

Experiment: Untargeted metabolomics of blood serum and brain tissue
Assay type: in vivo, mouse
Conditions: inferred from similarly elevated levels in serum and brain tissue of old mice
Experimental: Blood serum and hippocampal brain tissue was removed from young and old mice and snap-frozen in liquid nitrogen after determining the weight. Sample analysis was conducted by Metabolon, Inc. using a proprietary series of organic and aqueous extractions to remove the protein content while allowing maximum recovery of small molecules. The extract was divided into two parts: one for analysis by LC and the other for analysis by GC. TurboVap® (Zymark) was used to remove the organic solvent content. Each sample was then frozen and dried under vacuum. The exact methodology can be provided by Metabolon, Inc. as their standard protocol for untargeted mass spectrometry metabolomics.
Samples were snap-frozen upon collection and stored at −80° C. until further processing at Metabolon, Inc. 52. Briefly, recovery standards were added prior to the first step in the extraction process for quality control purposes. […] Three types of controls were analyzed in concert with the experimental samples: samples generated from a pool of spike-in controls extensively characterized by Metabolon, Inc. or generated from a small portion of each experimental sample of interest served as technical replicate throughout the data set; extracted water samples served as process blanks; and a cocktail of standards spiked into every analyzed sample allowed instrument performance monitoring. […]

C[N+](C)(C)CCCCC(=O)[O-] [NNN-trimethyl-5-aminovalerate, 5-(trimethylammonio) pentanoate]
blood-brain barrier crossing: cross the blood-brain barrier
